# Tested on: MOLM-13 cells
# Experiment: MOLM-13 cell viability assay (CellTiter-Glo)
# Type: cell-based
# Settings: 3 days, concentration of 1 μM
# In short: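 MOLM-13 AML cells in RPMI 1640 with 10% FBS, seeded at 2,500 cells/well and exposed to compound or DMSO for 3 days at 37° C, 5% CO2. Viability read as CellTiter-Glo luminescence after 10 min shaking.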
row,Compound,"Antiproliferative Activity (inhibition, MOLM-13 cell viability)"
1,"CC(C)(C)c1ccc(C(=O)C(=O)NCc2scc3c2CN(C2CCC(=O)NC2=O)C3=O)cc1 (stereo not drawn) [Compound I-40, 2-(4-(tert-butyl)phenyl)-N-((5-(2,6-dioxopiperidin-3-yl)-4-oxo-5,6-dihydro-4H-thieno[3,4-c]pyrrol-1-yl)methyl)-2-oxoacetamide]",D (a value less than 25% inhibition)

# Same assay, conditions: Homo sapiens, MOLM-13, 72 h, 3 days, concentration of 1 μM, read-out: Antiproliferative Activity (inhibition, MOLM-13 cell viability)
row,Compound,cytotoxicity at 1 µM [%]
1,"O=C1CCC(N2Cc3c(CNC(=O)C(=O)c4ccc(Cl)cc4)cccc3C2=O)C(=O)N1 (stereo not drawn) [Compound I-77, 2-(4-chlorophenyl)-N-((2-(2,6-dioxopiperidin-3-yl)-1-oxoisoindolin-4-yl)methyl)-2-oxoacetamide]",< 25
2,"Cc1ccc(NC(=O)NCc2cc3c(s2)C(=O)N(C2(C)CCC(=O)NC2=O)C3)cc1Cl (stereo not drawn) [II-73, 1-(3-chloro-4-methylphenyl)-3-((5-(3-methyl-2,6-dioxopiperidin-3-yl)-6-oxo-5,6-dihydro-4H-thieno[2,3-c]pyrrol-2-yl)methyl)urea]",< 25
3,"CC(C)[C@@H](N)C(=O)OCN1C(=O)CCC(N2Cc3c(CNC(=O)C(=O)c4ccc(C5(C(F)(F)F)CC5)cc4)cccc3C2=O)C1=O (stereo partly drawn) [Compound I-64, (2,6-dioxo-3-(1-oxo-4-((2-oxo-2-(4-(1-(trifluoromethyl)cyclopropyl)-phenyl)acetamido)methyl)isoindolin-2-yl)piperidin-1-yl)methyl D-valinate]",> 80
4,"Cc1cc(C(=O)C(=O)NCc2cccc3c2CN(C2CCC(=O)NC2=O)C3=O)ccc1C(C)(C)C (stereo not drawn) [Compound I-54, 2-(3-methyl-4-(tert-butyl)phenyl)-N-((2-(2,6-dioxopiperidin-3-yl)-1-oxoisoindolin-4-yl)methyl)-2-oxoacetamide]",> 80
5,"CN(C)c1ccc(C(=O)C(=O)NCc2scc3c2CN(C2CCC(=O)NC2=O)C3=O)cc1 (stereo not drawn) [Compound I-7, 2-(4-dimethylaminophenyl)-N-((5-(2,6-dioxopiperidin-3-yl)-4-oxo-5,6-dihydro-4H-thieno[3,4-c]pyrrol-1-yl)methyl)-2-oxoacetamide]",< 25
6,"CN(C)c1cc(NC(=O)NCc2cc3c(s2)C(=O)N(C2CCC(=O)NC2=O)C3)cc(C(F)(F)F)c1 (stereo not drawn) [II-50, 1-(3-(dimethylamino)-5-(trifluoromethyl)phenyl)-3-((5-(2,6-dioxopiperidin-3-yl)-6-oxo-5,6-dihydro-4H-thieno[2,3-c]pyrrol-2-yl)methyl)urea]",> 80
7,"CC(C)c1ccc(C(=O)C(=O)NCc2cccc3c2CN(C2CCC(=O)NC2=O)C3=O)s1 (stereo not drawn) [Compound I-59, N-((2-(2,6-dioxopiperidin-3-yl)-1-oxoisoindolin-4-yl)methyl)-2-(5-isopropylthiophen-2-yl)-2-oxoacetamide]",25 to 50
8,"C=C(C(=O)NCc1scc2c1CN(C1CCC(=O)NC1=O)C2=O)c1ccc(C)c(Cl)c1 (stereo not drawn) [II-67, 2-(3-chloro-4-methylphenyl)-N-((5-(2,6-dioxopiperidin-3-yl)-4-oxo-5,6-dihydro-4H-thieno[3,4-c]pyrrol-1-yl)methyl)propenamide]",< 25
9,"Cc1ccc(NCCCNCc2cc3c(s2)C(=O)N(C2CCC(=O)NC2=O)C3)cc1Cl (stereo not drawn) [II-65, 3-(2-(((3-((3-chloro-4-methylphenyl)amino)propyl)amino)methyl)-6-oxo-4,6-dihydro-5H-thieno[2,3-c]pyrrol-5-yl)piperidine-2,6-dione]",< 25
10,"CN(C)Cc1ccc(C(=O)C(=O)NCc2scc3c2CN(C2CCC(=O)NC2=O)C3=O)cc1 (stereo not drawn) [Compound I-25, 2-(4-((dimethylamino)methyl)phenyl)-N-((5-(2,6-dioxopiperidin-3-yl)-4-oxo-5,6-dihydro-4H-thieno[3,4-c]pyrrol-1-yl)methyl)-2-oxoacetamide]",< 25
11,"O=C1CCC(N2Cc3c(CNC(=O)C(=O)c4cccc(F)c4)cccc3C2=O)C(=O)N1 (stereo not drawn) [Compound I-92, 2-(3-fluorophenyl)-N-((2-(2,6-dioxopiperidin-3-yl)-1-oxoisoindolin-4-yl)methyl)-2-oxoacetamide]",50 to 80

# Source: patent publication US11345712B2, “Protein-targeting compounds and pharmaceutical compositions thereof, and their therapeutic applications” (BioTheryX, Inc., priority 2019, dated 2022)
